In the NIST ThermoML archive (doi:10.1016/j.fluid.2014.06.021):
± gives the expanded uncertainty stated by the source.

Assay: activity coefficient (dimensionless); of the first substance listed, at infinite dilution; xn = mol fraction of the nth substance listed
Conditions: 101.33 kPa, Liquid, Chromatography, x1 = 0

SMILES	activity coefficient (323.15 K)	activity coefficient (333.15 K)	activity coefficient (343.15 K)
Cc1ccc(C)cc1 [1,4-dimethylbenzene] + C[n+]1ccn(CCCCS(=O)(=O)O)c1.O=S(=O)([O-])C(F)(F)F	10.1 ± 0.69	9.86 ± 0.67	9.52 ± 0.65
Cc1cccc(C)c1 [1,3-dimethylbenzene] + C[n+]1ccn(CCCCS(=O)(=O)O)c1.O=S(=O)([O-])O	62.8 ± 4.3	55.4 ± 3.8	54.5 ± 3.7
Cc1cccc(C)c1 [1,3-dimethylbenzene] + C[n+]1ccn(CCCCS(=O)(=O)O)c1.O=S(=O)([O-])C(F)(F)F	10.4 ± 0.71	10.1 ± 0.7	9.84 ± 0.67
CCCC(C)=O [pentan-2-one] + C[n+]1ccn(CCCCS(=O)(=O)O)c1.O=S(=O)([O-])O	13.4 ± 0.92	13.2 ± 0.9	12.5 ± 0.85
C[N+](=O)[O-] [nitromethane] + C[n+]1ccn(CCCCS(=O)(=O)O)c1.O=S(=O)([N-]S(=O)(=O)C(F)(F)F)C(F)(F)F	0.6 ± 0.1	0.6 ± 0.1	0.6 ± 0.1
CCc1ccccc1 [ethylbenzene] + C[n+]1ccn(CCCCS(=O)(=O)O)c1.O=S(=O)([O-])O	62.7 ± 4.3	57.6 ± 3.9	54.5 ± 3.7
CCC(=O)CC [pentan-3-one] + C[n+]1ccn(CCCCS(=O)(=O)O)c1.O=S(=O)([O-])C(F)(F)F	2.31 ± 0.16	2.33 ± 0.16	2.44 ± 0.17
CCOCC [diethyl ether] + C[n+]1ccn(CCCCS(=O)(=O)O)c1.O=S(=O)([N-]S(=O)(=O)C(F)(F)F)C(F)(F)F	0.4 ± 0.1	0.53 ± 0.04	0.65 ± 0.04
C1CCCCCC1 [cycloheptane] + C[n+]1ccn(CCCCS(=O)(=O)O)c1.O=S(=O)([N-]S(=O)(=O)C(F)(F)F)C(F)(F)F	92.5 ± 6.4	144 ± 9.9	180 ± 12
CCCC(C)=O [pentan-2-one] + C[n+]1ccn(CCCCS(=O)(=O)O)c1.O=S(=O)([O-])C(F)(F)F	2.11 ± 0.14	2.14 ± 0.15	2.19 ± 0.15
CCC(C)=O [butanone] + C[n+]1ccn(CCCCS(=O)(=O)O)c1.O=S(=O)([O-])C(F)(F)F	1.06 ± 0.07	1 ± 0.06	0.96 ± 0.06
CCCCCCCCCCC [undecane] + C[n+]1ccn(CCCCS(=O)(=O)O)c1.O=S(=O)([O-])O	1490 ± 100	1370 ± 94	1310 ± 90
CC(C)CO [2-methyl-1-propanol] + C[n+]1ccn(CCCCS(=O)(=O)O)c1.O=S(=O)([N-]S(=O)(=O)C(F)(F)F)C(F)(F)F		0.22 ± 0.03	0.26 ± 0.03
CCc1ccccc1 [ethylbenzene] + C[n+]1ccn(CCCCS(=O)(=O)O)c1.O=S(=O)([O-])C(F)(F)F	10.8 ± 0.74	10.3 ± 0.7	10.3 ± 0.7
C[N+](=O)[O-] [nitromethane] + C[n+]1ccn(CCCCS(=O)(=O)O)c1.O=S(=O)([O-])O	1.58 ± 0.1	1.59 ± 0.11	1.6 ± 0.11
CCC(C)=O [butanone] + C[n+]1ccn(CCCCS(=O)(=O)O)c1.O=S(=O)([O-])O	5.49 ± 0.37	5.17 ± 0.35	4.47 ± 0.3
CCCCCCCCCCCCC [tridecane] + C[n+]1ccn(CCCCS(=O)(=O)O)c1.O=S(=O)([N-]S(=O)(=O)C(F)(F)F)C(F)(F)F	1080 ± 75	911 ± 63	832 ± 57
CCC[N+](=O)[O-] [1-nitropropane] + C[n+]1ccn(CCCCS(=O)(=O)O)c1.O=S(=O)([N-]S(=O)(=O)C(F)(F)F)C(F)(F)F	1.17 ± 0.07	1.17 ± 0.07	1.18 ± 0.08
CCCCCCCCCCCCCC [tetradecane] + C[n+]1ccn(CCCCS(=O)(=O)O)c1.O=S(=O)([N-]S(=O)(=O)C(F)(F)F)C(F)(F)F	1180 ± 81	1060 ± 73	941 ± 65
CCCCCCCCCCCC [dodecane] + C[n+]1ccn(CCCCS(=O)(=O)O)c1.O=S(=O)([N-]S(=O)(=O)C(F)(F)F)C(F)(F)F	684 ± 47	588 ± 40	557 ± 38
c1ccccc1 [benzene] + C[n+]1ccn(CCCCS(=O)(=O)O)c1.O=S(=O)([O-])C(F)(F)F	3.36 ± 0.23	3.29 ± 0.22	3.2 ± 0.2
CC(C)OC(C)C [diisopropyl ether] + C[n+]1ccn(CCCCS(=O)(=O)O)c1.O=S(=O)([O-])C(F)(F)F	11.7 ± 0.8	13.3 ± 0.91	14.9 ± 1
CCCCCCCCCCCCC [tridecane] + C[n+]1ccn(CCCCS(=O)(=O)O)c1.O=S(=O)([O-])C(F)(F)F	1940 ± 130	1550 ± 110	1220 ± 84
